Results from PubChem BioAssay (NCI).
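Where inhibition never reached the appropriate level, the endpoint shown equals the highest concentration tested. Otherwise, values were interpolated linearly from a five-concentration, 48-hour dose response in 96-well plates. TGI: concentration producing complete growth inhibition.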

Assays:
Test in all cases: NCI tumour cell line growth inhibition, 48 h
MDA-MB-435 = tested on: MDA-MB-435
RXF 393 renal = tested on: RXF 393 renal
MALME-3M melanoma = tested on: MALME-3M melanoma
NCI-H23 lung = tested on: NCI-H23 lung
PC-3 prostate = tested on: PC-3 prostate
RPMI-8226 leukemia = tested on: RPMI-8226 leukemia
TK-10 renal = tested on: TK-10 renal
K-562 leukemia = tested on: K-562 leukemia
OVCAR-3 ovarian = tested on: OVCAR-3 ovarian
786-0 renal = tested on: 786-0 renal
SNB-75 CNS = tested on: SNB-75 CNS
IGROV1 ovarian = tested on: IGROV1 ovarian
A549 NSCLC = tested on: A549 NSCLC
SF-295 CNS = tested on: SF-295 CNS
UO-31 renal = tested on: UO-31 renal
HCT-15 colon = tested on: HCT-15 colon
SK-MEL-2 melanoma = tested on: SK-MEL-2 melanoma
MDA-MB-231 breast = tested on: MDA-MB-231 breast
COLO 205 colon = tested on: COLO 205 colon
SK-OV-3 ovarian = tested on: SK-OV-3 ovarian
A498 renal = tested on: A498 renal
LOX IMVI melanoma = tested on: LOX IMVI melanoma
ACHN renal = tested on: ACHN renal
OVCAR-4 ovarian = tested on: OVCAR-4 ovarian
UACC-62 melanoma = tested on: UACC-62 melanoma
HS 578T breast = tested on: HS 578T breast
SK-MEL-5 melanoma = tested on: SK-MEL-5 melanoma
BT-549 breast = tested on: BT-549 breast
T-47D breast = tested on: T-47D breast
M14 melanoma = tested on: M14 melanoma
CCRF-CEM leukemia = tested on: CCRF-CEM leukemia
HCT-116 colon = tested on: HCT-116 colon
DU-145 prostate = tested on: DU-145 prostate
KM12 colon = tested on: KM12 colon
MCF7 breast = tested on: MCF7 breast
SN12C renal = tested on: SN12C renal
SR leukemia = tested on: SR leukemia
SF-539 CNS = tested on: SF-539 CNS
SNB-19 CNS = tested on: SNB-19 CNS
NCI/ADR-RES ovarian = tested on: NCI/ADR-RES ovarian
SW-620 colon = tested on: SW-620 colon
SF-268 CNS = tested on: SF-268 CNS
NCI-H226 lung = tested on: NCI-H226 lung
HT29 colon = tested on: HT29 colon
OVCAR-8 ovarian = tested on: OVCAR-8 ovarian
MDA-N = tested on: MDA-N
EKVX NSCLC = tested on: EKVX NSCLC
U251 CNS = tested on: U251 CNS
OVCAR-5 ovarian = tested on: OVCAR-5 ovarian
HL-60(TB) leukemia = tested on: HL-60(TB) leukemia
MOLT-4 leukemia = tested on: MOLT-4 leukemia
UACC-257 melanoma = tested on: UACC-257 melanoma
NCI-H522 lung = tested on: NCI-H522 lung
NCI-H460 lung = tested on: NCI-H460 lung
HOP-92 NSCLC = tested on: HOP-92 NSCLC
HOP-62 NSCLC = tested on: HOP-62 NSCLC
HCC-2998 colon = tested on: HCC-2998 colon
SK-MEL-28 melanoma = tested on: SK-MEL-28 melanoma
CAKI-1 renal = tested on: CAKI-1 renal

Structure (SMILES): O=C(Cc1ccccc1)NCCc1ccc(O)c(O)c1
- TGI (MDA-MB-435): 33.8 µM
- TGI (RXF 393 renal): > 100 µM
- TGI (MALME-3M melanoma): > 100 µM
- TGI (NCI-H23 lung): > 100 µM
- TGI (PC-3 prostate): > 100 µM
- TGI (RPMI-8226 leukemia): > 100 µM
- TGI (TK-10 renal): > 100 µM
- TGI (K-562 leukemia): 39.8 µM
- TGI (OVCAR-3 ovarian): > 100 µM
- TGI (786-0 renal): > 100 µM
- TGI (SNB-75 CNS): > 100 µM
- TGI (IGROV1 ovarian): > 100 µM
- TGI (A549 NSCLC): > 100 µM
- TGI (SF-295 CNS): > 100 µM
- TGI (UO-31 renal): > 100 µM
- TGI (HCT-15 colon): > 100 µM
- TGI (SK-MEL-2 melanoma): 80.1 µM
- TGI (MDA-MB-231 breast): > 100 µM
- TGI (COLO 205 colon): > 100 µM
- TGI (SK-OV-3 ovarian): > 100 µM
- TGI (A498 renal): > 100 µM
- TGI (LOX IMVI melanoma): > 100 µM
- TGI (ACHN renal): > 100 µM
- TGI (OVCAR-4 ovarian): 28 µM
- TGI (UACC-62 melanoma): > 100 µM
- TGI (HS 578T breast): > 100 µM
- TGI (SK-MEL-5 melanoma): > 100 µM
- TGI (BT-549 breast): > 100 µM
- TGI (T-47D breast): > 100 µM
- TGI (M14 melanoma): > 100 µM
- TGI (CCRF-CEM leukemia): 24.3 µM
- TGI (HCT-116 colon): > 100 µM
- TGI (DU-145 prostate): > 100 µM
- TGI (KM12 colon): > 100 µM
- TGI (MCF7 breast): > 100 µM
- TGI (SN12C renal): > 100 µM
- TGI (SR leukemia): 73.3 µM
- TGI (SF-539 CNS): > 100 µM
- TGI (SNB-19 CNS): > 100 µM
- TGI (NCI/ADR-RES ovarian): > 100 µM
- TGI (SW-620 colon): > 100 µM
- TGI (SF-268 CNS): > 100 µM
- TGI (NCI-H226 lung): > 100 µM
- TGI (HT29 colon): > 100 µM
- TGI (OVCAR-8 ovarian): > 100 µM
- TGI (MDA-N): 34.9 µM
- TGI (EKVX NSCLC): > 100 µM
- TGI (U251 CNS): > 100 µM
- TGI (OVCAR-5 ovarian): > 100 µM
- TGI (HL-60(TB) leukemia): 51.9 µM
- TGI (MOLT-4 leukemia): > 100 µM
- TGI (UACC-257 melanoma): > 100 µM
- TGI (NCI-H522 lung): > 100 µM
- TGI (NCI-H460 lung): > 100 µM
- TGI (HOP-92 NSCLC): > 100 µM
- TGI (HOP-62 NSCLC): > 100 µM
- TGI (HCC-2998 colon): > 100 µM
- TGI (SK-MEL-28 melanoma): > 100 µM

Structure (SMILES): CCc1nn(CN2CCN(C)CC2)c(=S)n1/N=C\c1ccc(-c2ccc([N+](=O)[O-])cc2)o1
- TGI (MDA-MB-435): > 100 µM
- TGI (RXF 393 renal): 82.5 µM
- TGI (MALME-3M melanoma): > 100 µM
- TGI (NCI-H23 lung): > 100 µM
- TGI (PC-3 prostate): > 100 µM
- TGI (RPMI-8226 leukemia): > 100 µM
- TGI (TK-10 renal): 71.3 µM
- TGI (K-562 leukemia): > 100 µM
- TGI (OVCAR-3 ovarian): > 100 µM
- TGI (786-0 renal): > 100 µM
- TGI (IGROV1 ovarian): > 100 µM
- TGI (A549 NSCLC): > 100 µM
- TGI (SF-295 CNS): > 100 µM
- TGI (UO-31 renal): > 100 µM
- TGI (HCT-15 colon): > 100 µM
- TGI (SK-MEL-2 melanoma): > 100 µM
- TGI (MDA-MB-231 breast): > 100 µM
- TGI (SK-OV-3 ovarian): > 100 µM
- TGI (A498 renal): 54.7 µM
- TGI (LOX IMVI melanoma): > 100 µM
- TGI (ACHN renal): > 100 µM
- TGI (OVCAR-4 ovarian): > 100 µM
- TGI (UACC-62 melanoma): > 100 µM
- TGI (HS 578T breast): > 100 µM
- TGI (SK-MEL-5 melanoma): > 100 µM
- TGI (BT-549 breast): > 100 µM
- TGI (T-47D breast): 68.5 µM
- TGI (M14 melanoma): > 100 µM
- TGI (CCRF-CEM leukemia): > 100 µM
- TGI (HCT-116 colon): > 100 µM
- TGI (DU-145 prostate): > 100 µM
- TGI (KM12 colon): > 100 µM
- TGI (MCF7 breast): > 100 µM
- TGI (SN12C renal): > 100 µM
- TGI (SR leukemia): > 100 µM
- TGI (SNB-19 CNS): > 100 µM
- TGI (NCI/ADR-RES ovarian): 73.2 µM
- TGI (SF-268 CNS): > 100 µM
- TGI (NCI-H226 lung): 86.4 µM
- TGI (HT29 colon): > 100 µM
- TGI (OVCAR-8 ovarian): > 100 µM
- TGI (MDA-N): > 100 µM
- TGI (EKVX NSCLC): > 100 µM
- TGI (U251 CNS): > 100 µM
- TGI (OVCAR-5 ovarian): > 100 µM
- TGI (HL-60(TB) leukemia): > 100 µM
- TGI (MOLT-4 leukemia): > 100 µM
- TGI (UACC-257 melanoma): > 100 µM
- TGI (CAKI-1 renal): > 100 µM
- TGI (NCI-H522 lung): > 100 µM
- TGI (NCI-H460 lung): > 100 µM
- TGI (HOP-92 NSCLC): > 100 µM
- TGI (HOP-62 NSCLC): > 100 µM
- TGI (HCC-2998 colon): > 100 µM
